A short description of this assay: Inhibition of NLRP3 inflammasome in mouse BMDMs assessed as reduction in pyroptosis activity preincubated with LPS for 4 hrs followed by compound addition for 30 mins prior to nigericin addition and measured after 1 hr by ELISA.

By IC50 is commonly meant the concentration at which inhibition is half-maximal. On to `CC1=C(O)C(=O)C=C2C1=CC=C1[C@@]2(C)[C@@H](Br)C[C@@]2(C)[C@@H]3C[C@@H](C)C(=O)C[C@]3(C)CC[C@]12C`, for which the IC50 worked out at 130 nM. As to `COc1c(O)cc2c(c1C)C(=O)C=C1[C@@]2(C)CC[C@@]2(C)[C@@H]3C[C@@H](C)C(=O)[C@@H](O)[C@]3(C)CC[C@]12C`, the IC50 turned out to be 2210 nM.

Source of the values: BindingDB's records for PubMed 37639823 (Shenyang Pharmaceutical University).
